Results from PubChem BioAssay (NCI).
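How tested: cells in 96-well plates exposed to compound for 48 hours at five concentrations. Abbreviation: GI50, concentration required for 50% inhibition of growth. TGI is the concentration that stops growth completely.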

Legend:
Experiment in all cases: growth of human tumour cells (NCI), 48 h
[1] = test system: 786-0 renal
[2] = test system: OVCAR-3 ovarian
[3] = test system: IGROV1 ovarian
[4] = test system: SN12C renal
[5] = test system: NCI-H460 lung
[6] = test system: HOP-62 NSCLC
[7] = test system: TK-10 renal
[8] = test system: MDA-MB-231 breast
[9] = test system: MOLT-4 leukemia
[10] = test system: RXF 393 renal
[11] = test system: HT29 colon
[12] = test system: LOX IMVI melanoma
[13] = test system: A498 renal
[14] = test system: OVCAR-5 ovarian
[15] = test system: MCF7 breast
[16] = test system: SF-268 CNS
[17] = test system: HS 578T breast
[18] = test system: SW-620 colon
[19] = test system: UO-31 renal
[20] = test system: U251 CNS
[21] = test system: CCRF-CEM leukemia
[22] = test system: NCI-H23 lung
[23] = test system: NCI/ADR-RES ovarian
[24] = test system: SK-MEL-5 melanoma
[25] = test system: SK-OV-3 ovarian
[26] = test system: HCT-15 colon
[27] = test system: KM12 colon
[28] = test system: OVCAR-8 ovarian
[29] = test system: HOP-92 NSCLC
[30] = test system: NCI-H522 lung
[31] = test system: SNB-19 CNS
[32] = test system: MDA-MB-435
[33] = test system: UACC-257 melanoma
[34] = test system: HCT-116 colon
[35] = test system: PC-3 prostate
[36] = test system: HL-60(TB) leukemia
[37] = test system: RPMI-8226 leukemia
[38] = test system: SR leukemia
[39] = test system: NCI-H226 lung
[40] = test system: SK-MEL-28 melanoma
[41] = test system: DU-145 prostate
[42] = test system: M14 melanoma
[43] = test system: EKVX NSCLC
[44] = test system: UACC-62 melanoma
[45] = test system: COLO 205 colon
[46] = test system: K-562 leukemia
[47] = test system: CAKI-1 renal
[48] = test system: SNB-75 CNS
[49] = test system: HCC-2998 colon
[50] = test system: ACHN renal
[51] = test system: BT-549 breast
[52] = test system: SF-539 CNS
[53] = test system: OVCAR-4 ovarian
[54] = test system: A549 NSCLC
[55] = test system: MALME-3M melanoma
[56] = test system: SK-MEL-2 melanoma
[57] = test system: SF-295 CNS
[58] = test system: T-47D breast

CC(=O)NCc1cccc(C#Cc2cncnc2Nc2ccc(OCc3cccc(F)c3)c(Cl)c2)c1
GI50 [1]: 10.7 µM
TGI [1]: > 25 µM
GI50 [2]: 11.6 µM
TGI [2]: > 25 µM
GI50 [3]: 5.51 µM
TGI [3]: > 25 µM
GI50 [4]: 10.6 µM
TGI [4]: > 25 µM
GI50 [5]: 10.6 µM
TGI [5]: > 25 µM
GI50 [6]: > 25 µM
TGI [6]: > 25 µM
GI50 [7]: 1.97 µM
TGI [7]: > 20.2 µM
GI50 [8]: > 25 µM
TGI [8]: > 25 µM
GI50 [9]: 7.42 µM
TGI [9]: > 25 µM
GI50 [10]: 13 µM
TGI [10]: > 25 µM
GI50 [11]: 9.19 µM
TGI [11]: > 25 µM
GI50 [12]: 9.44 µM
TGI [12]: > 25 µM
GI50 [13]: 3.52 µM
TGI [13]: 24.8 µM
GI50 [14]: 9.13 µM
TGI [14]: > 25 µM
GI50 [15]: 9.18 µM
TGI [15]: > 25 µM
GI50 [16]: 16.7 µM
TGI [16]: > 25 µM
GI50 [17]: > 22.4 µM
TGI [17]: > 25 µM
GI50 [18]: 18.3 µM
TGI [18]: > 25 µM
GI50 [19]: 3.25 µM
TGI [19]: > 21.1 µM
GI50 [20]: 11 µM
TGI [20]: > 25 µM
GI50 [21]: 13.4 µM
TGI [21]: > 25 µM
GI50 [22]: 14.1 µM
TGI [22]: > 25 µM
GI50 [23]: 7.76 µM
TGI [23]: > 25 µM
GI50 [24]: 9.44 µM
TGI [24]: > 25 µM
GI50 [25]: > 12.9 µM
TGI [25]: > 25 µM
GI50 [26]: 8.31 µM
TGI [26]: > 25 µM
GI50 [27]: 11.1 µM
TGI [27]: > 25 µM
GI50 [28]: 9.58 µM
TGI [28]: > 25 µM
GI50 [29]: 5.66 µM
TGI [29]: > 25 µM
GI50 [30]: 6.55 µM
TGI [30]: > 22.4 µM
GI50 [31]: > 21.8 µM
TGI [31]: > 25 µM
GI50 [32]: 8.41 µM
TGI [32]: > 25 µM
GI50 [33]: 12.3 µM
TGI [33]: > 25 µM
GI50 [34]: 9.05 µM
TGI [34]: > 25 µM
GI50 [35]: 8.37 µM
TGI [35]: > 25 µM
GI50 [36]: 7.76 µM
TGI [36]: > 22.5 µM
GI50 [37]: 15.4 µM
TGI [37]: > 25 µM
GI50 [38]: > 25 µM
TGI [38]: > 25 µM
GI50 [39]: > 21.1 µM
TGI [39]: > 25 µM
GI50 [40]: 19.8 µM
TGI [40]: > 25 µM
GI50 [41]: 10.1 µM
TGI [41]: > 25 µM
GI50 [42]: 14.1 µM
TGI [42]: > 25 µM
GI50 [43]: 1.46 µM
TGI [43]: > 14.8 µM
GI50 [44]: 9.87 µM
TGI [44]: > 25 µM
GI50 [45]: > 16.7 µM
TGI [45]: > 25 µM
GI50 [46]: 10.1 µM
TGI [46]: > 25 µM
GI50 [47]: 2.04 µM
TGI [47]: > 23.7 µM
GI50 [48]: > 21 µM
TGI [48]: > 25 µM
GI50 [49]: 9.04 µM
TGI [49]: > 25 µM
GI50 [50]: 5.84 µM
TGI [50]: > 25 µM
GI50 [51]: 13.5 µM
TGI [51]: > 25 µM
GI50 [52]: > 21.1 µM
TGI [52]: > 25 µM
GI50 [53]: 12.9 µM
TGI [53]: > 25 µM
GI50 [54]: 6.47 µM
TGI [54]: > 25 µM
GI50 [55]: 19.4 µM
TGI [55]: > 25 µM
GI50 [56]: 11.8 µM
TGI [56]: > 25 µM
GI50 [57]: 8.02 µM
TGI [57]: > 25 µM
GI50 [58]: 9.68 µM
TGI [58]: > 25 µM
